Experimental data taken from ChEMBL document CHEMBL2385011, “Optimization of a 1,5-dihydrobenzo[b][1,4]diazepine-2,4-dione series of HIV capsid assembly inhibitors 1: addressing configurational instability through scaffold modification” (Bioorg Med Chem Lett, 2013).

Tests used:
[1] = Cytotoxicity against human C8166 cells; assay type: cell-based
[2] = system: Human immunodeficiency virus 1; assay: Antiviral activity against HIV1 infected in human C8166 cells expressing LTR after 3 days by luciferase reporter gene assay; assay type: functional, organism-based; settings: Human immunodeficiency virus 1, C8166, 72 h
[3] = molecular target: Structural capsid protein (Human immunodeficiency virus 1, UniProt Q76129); assay: Inhibition of HIV1 capsid-nucleocapsid assembly expressed in Escherichia coli BL21(DE3) after 2 hrs by fluorescence assay
[4] = molecular target: Structural capsid protein (Human immunodeficiency virus 1) (UniProt Q76129); assay: Inhibition of HIV1 capsid-nucleocapsid assembly expressed in Escherichia coli BL21(DE3) at 3.5 uM after 2 hrs by fluorescence assay relative to control
Structural capsid protein (Human immunodeficiency virus 1), sequence (Q76129 as listed by the source): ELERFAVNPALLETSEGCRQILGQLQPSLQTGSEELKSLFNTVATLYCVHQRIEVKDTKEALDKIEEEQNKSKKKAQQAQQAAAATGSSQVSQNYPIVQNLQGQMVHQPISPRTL

Structural capsid protein, sequence (Q76129 whole entry): as the sequence (Q76129 as listed by the source) above

Structure (SMILES)	CC50 [1]	EC50 [2]	IC50 [3]	inhibition [4]
CCN1C(=O)C2(CCc3cc(OC)ccc32)C(=O)N(c2ccccc2)c2cc(C(F)(F)F)ccc21 (stereo unspecified)	> 4000 nM	510 nM	160 nM	–
CCN1C(=O)N(c2cccc(OC)c2)C(=O)N(c2ccccc2)c2cc(C(F)(F)F)ccc21	> 20000 nM	1200 nM	210 nM	–
CCN1C(=O)C2(CC(=O)c3cc(O)ccc32)C(=O)N(c2ccccc2)c2cc(C(F)(F)F)ccc21 (stereo unspecified)	–	–	1500 nM	–
CCN1C(=O)N(c2cccc(C(=O)NCCN3CCOCC3)c2)C(=O)N(c2ccccc2)c2cc(C(F)(F)F)ccc21	> 19000 nM	1100 nM	220 nM	–
CCN1C(=O)N(c2cccc(C(=O)NC)c2)C(=O)N(c2ccccc2)c2cc(C(F)(F)F)ccc21	> 22000 nM	1200 nM	280 nM	–
CCN1C(=O)N(c2cc(C)c(O)c(Cl)c2)C(=O)N(c2ccccc2)c2cc(C(F)(F)F)ccc21	> 10000 nM	150 nM	60 nM	–
CCN1C(=O)C2(CCc3ccc(O)cc32)C(=O)N(c2ccccc2)c2cc(C(F)(F)F)ccc21 (stereo unspecified)	> 27000 nM	1200 nM	590 nM	–
CN1C(=O)C2(CCc3cc(NC(=O)[C@@H]4CCCN4)ccc32)C(=O)N(c2ccccc2)c2cc(C(F)(F)F)ccc21 (stereo partly specified)	11000 nM	520 nM	110 nM	–
CCN1C(=O)C2(CC(C)c3cc(O)ccc32)C(=O)N(c2ccccc2)c2cc(C(F)(F)F)ccc21 (stereo unspecified)	–	–	290 nM	–
CN1C(=O)C(c2ccccc2)C(=O)N(c2ccccc2)c2cc(C(F)(F)F)ccc21 (stereo unspecified)	–	–	680 nM	–
CCN1C(=O)N(c2ccc(OC)cc2)C(=O)N(c2ccccc2)c2cc(C(F)(F)F)ccc21	> 16000 nM	720 nM	180 nM	–
CCN1C(=O)C2(CCc3c(O)cccc32)C(=O)N(c2ccccc2)c2cc(C(F)(F)F)ccc21 (stereo unspecified)	> 21000 nM	780 nM	240 nM	–
CCN1C(=O)N(c2ccc(O)c(C)c2)C(=O)N(c2ccccc2)c2cc(C(F)(F)F)ccc21	17000 nM	260 nM	90 nM	–
CN1C(=O)C(C)(c2ccccc2)C(=O)N(c2ccccc2)c2cc(C(F)(F)F)ccc21 (stereo unspecified)	–	–	–	8%
CCN1C(=O)N(c2ccccc2)C(=O)N(c2ccccc2)c2cc(C(F)(F)F)ccc21	> 4000 nM	600 nM	630 nM	–
CCC1CC2(C(=O)N(CC)c3ccc(C(F)(F)F)cc3N(c3ccccc3)C2=O)c2ccc(O)cc21 (stereo unspecified)	–	–	730 nM	–
CCN1C(=O)C2(CCc3ccccc32)C(=O)N(c2ccccc2)c2cc(C(F)(F)F)ccc21 (stereo unspecified)	> 16000 nM	1600 nM	460 nM	–
CCN1C(=O)C(c2ccccc2)C(=O)N(c2ccccc2)c2cc(C(F)(F)F)ccc21 (stereo unspecified)	–	2600 nM	730 nM	–
CCN1C(=O)N(c2ccc(C)cc2)C(=O)N(c2ccccc2)c2cc(C(F)(F)F)ccc21	> 6500 nM	540 nM	190 nM	–
CN1C(=O)C2(CCc3cc(N)ccc32)C(=O)N(c2ccccc2)c2cc(C(F)(F)F)ccc21 (stereo unspecified)	> 15000 nM	410 nM	160 nM	–
CCN1C(=O)N(c2ccc(O)cc2)C(=O)N(c2ccccc2)c2cc(C(F)(F)F)ccc21	35000 nM	380 nM	50 nM	–
CCN1C(=O)N(c2ccc(C(=O)NC)cc2)C(=O)N(c2ccccc2)c2cc(C(F)(F)F)ccc21	31000 nM	480 nM	130 nM	–
CCN1C(=O)C2(CC(C(C)C)c3cc(O)ccc32)C(=O)N(c2ccccc2)c2cc(C(F)(F)F)ccc21 (stereo unspecified)	–	–	1100 nM	–
CCN1C(=O)C2(CCc3cc(O)ccc32)C(=O)N(c2ccccc2)c2cc(C(F)(F)F)ccc21 (stereo unspecified)	32000 nM	690 nM	210 nM	–
CCN1C(=O)C2(CC(N)c3cc(O)ccc32)C(=O)N(c2ccccc2)c2cc(C(F)(F)F)ccc21 (stereo unspecified)	–	–	3600 nM	–
CCN1C(=O)C2(CC(O)c3cc(O)ccc32)C(=O)N(c2ccccc2)c2cc(C(F)(F)F)ccc21 (stereo unspecified)	–	–	2100 nM	–
